# From patent US11185073B2, “Microbiocidal quinoline (thio)carboxamide derivatives” (SYNGENTA PARTICIPATIONS AG, priority 2017, dated 2021)
# What was measured:
# [1] = tested on: Magnaporthe grisea (Pyricularia oryzae); test: microbe, parasite or virus in culture; format: cell-based; details: 72 h, read-out: control of Magnaporthe grisea
# Fusarium culmorum [2] = test: whole plant or invertebrate; format: in vivo; details: in Triticum aestivum, read-out: control of Fusarium culmorum
# [3] = tested on: Glomerella lagenarium (Colletotrichum lagenarium); test: Glomerella lagenarium (Colletotrichum lagenarium) / liquid culture (anthracnose); format: cell-based; details: Colletotrichum orbiculare, growth inhibition photometrically 3-4 days after application, compared to untreated control
# [4] = tested on: Botryotinia fuckeliana (Botrytis cinerea); test: Botryotinia fuckeliana (Botrytis cinerea) / liquid culture (gray mould); format: cell-based; details: 72 h, growth inhibition photometrically 3-4 days after application, compared to untreated control
# Fusarium culmorum [5] = test: microbe, parasite or virus in culture; format: cell-based; details: 72 h, read-out: control of Fusarium culmorum
# [6] = tested on: Monographella nivalis (Microdochium nivale); test: Monographella nivalis (Microdochium nivale) / liquid culture (foot rot cereals); format: cell-based; details: 96 h, growth inhibition photometrically 4-5 days after application, compared to untreated control
# [7] = tested on: Gibberella zeae (Fusarium graminearum); test: whole plant or invertebrate; format: in vivo; details: in Triticum aestivum, read-out: control of Gibberella zeae
SMILES,inhibition of growth at 20 ppm [1] [%],pest or weed control at 200 ppm (Fusarium culmorum [2]) [%],melting point [°C],inhibition of growth at 20 ppm [3] [%],inhibition of growth at 20 ppm [4] [%],inhibition of growth at 20 ppm (Fusarium culmorum [5]) [%],inhibition of growth at 20 ppm [6] [%],pest or weed control at 200 ppm [7] [%]
"CC(COC1CCCCCC1)(CC(F)(F)F)NC(=O)c1cnc2c(F)cccc2c1 (stereo not shown) [E.026, N-[1-(cyclohept-oxymethyl)-3,3,3-trifluoro-1-methyl-propyl)-8-fluoro-quinoline-3-carboxamide]",≥ 80,≥ 80,80 to 85,≥ 80,≥ 80,≥ 80,≥ 80,–
"CC(C)CC(C)(COCc1ccccc1)NC(=O)c1cnc2c(F)cccc2c1 (stereo not shown) [E.030, N-[1-(benzyloxy-methyl)-1,3-dimethyl-butyl]-8-fluoro-quinoline-3-carboxamide]",≥ 80,–,120 to 122,≥ 80,≥ 80,≥ 80,≥ 80,–
"COCC(C)(CC(C)C)NC(=O)c1cnc2c(F)cccc2c1 (stereo not shown) [E.032, 8-fluoro-N-[1-(methoxymethyl)-1,3-dimethyl-butyl]quinoline-3-carboxamide]",–,–,136 to 138,–,≥ 80,≥ 80,–,–
"CC(C)(C)COCC(C)(CC(F)(F)F)NC(=O)c1cnc2c(F)cccc2c1 (stereo not shown) [E.001, N-[1-(2,2-dimethyl-propoxymethyl)-3,3,3-trifluoro-1-methyl-propyl]-8-fluoro-quinoline-3-carboxamide]",≥ 80,≥ 80,74 to 78,≥ 80,≥ 80,≥ 80,≥ 80,≥ 80
"CC(COC1CCC(F)(F)CC1)(CC(F)(F)F)NC(=O)c1cnc2c(F)cccc2c1 (stereo not shown) [E.003, N-[1-[(4,4-difluoro-cyclohexoxy)-methyl]-3,3,3-trifluoro-1-methyl-propyl]-8-fluoro-quinoline-3-carboxamide]",≥ 80,≥ 80,42 to 44,≥ 80,≥ 80,≥ 80,≥ 80,≥ 80
"CC1(C)CC(OCC(C)(CC(F)(F)F)NC(=O)c2cnc3c(Cl)cccc3c2)C1 (stereo not shown) [E.002, 8-chloro-N-[1-[(3,3-dimethyl-cyclobutoxy)-methyl]-3,3,3-trifluoro-1-methylpropyl]-quinoline-3-carboxamide]",≥ 80,≥ 80,127 to 130,≥ 80,≥ 80,≥ 80,≥ 80,–
"CC1(C)CC(OCC(C)(CC(F)(F)F)NC(=O)c2cnc3c(F)cccc3c2)C1 (stereo not shown) [E.004, N-[1-[(3,3-dimethyl-cyclobutoxy)-methyl]-3,3,3-trifluoro-1-methyl-propyl]-8-fluoro-quinoline-3-carboxamide]",≥ 80,≥ 80,80 to 84,≥ 80,≥ 80,≥ 80,≥ 80,–
"CC(COc1ccc(Cl)cc1)(CC(F)(F)F)NC(=O)c1cnc2c(F)cccc2c1 (stereo not shown) [E.005, N-[1-[(4-chloro-phenoxy)methyl]-3,3,3-trifluoro-1-methyl-propyl]-8-fluoro-quinoline-3-carboxamide]",≥ 80,≥ 80,94 to 96,≥ 80,≥ 80,≥ 80,≥ 80,–
"CC(COC1CCC1)(CC(F)(F)F)NC(=O)c1cnc2c(F)c(F)ccc2c1 (stereo not shown) [E.008, N-[1-(cyclo-butoxymethyl)-3,3,3-trifluoro-1-methyl-propyl]-7,8-difluoro-quinoline-3-carboxamide]",≥ 80,≥ 80,–,≥ 80,≥ 80,≥ 80,≥ 80,≥ 80
"C[C@](COC1CCCCC1)(CC(F)(F)F)NC(=O)c1cnc2c(F)cccc2c1 [E.016, N-[(1R)-1-(cyclo-hexoxymethyl)-3,3,3-trifluoro-1-methyl-propyl]-8-fluoro-quinoline-3-carboxamide]",≥ 80,≥ 80,80 to 85,≥ 80,≥ 80,≥ 80,≥ 80,–
